Laboratory results published in patent publication US9321718B2 (CHROMA THERAPEUTICS LTD., priority 2010, dated 2016).
Like-named read-outs stand apart in the source and are kept apart here.

Tests used:
[1] = biological target: T1, human recombinant his-tagged HSP90α (Homo sapiens, UniProt P07900); test: HSP90 enzyme assay (HTRF, competition with biotinylated Geldanamycin); assay type: binding; conditions: IC50 range; read-out: Enzyme Assay
T1 construct: purchased Prospec Technogene #HSP90
Summary of the method: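 HTRF competition: compounds (5000 to 0.3 nM, 0.5% DMSO) displace 40 nM biotinylated geldanamycin from 40 nM his-tagged HSP90α. Binding was read via Eu-cryptate anti-his/streptavidin-XL FRET after 20 h at room temperature in Hepes pH 7.3 buffer. IC50 was fitted against controls.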

[2] = test system: TNFα release from LPS stimulated THP-1 (hCE-1 +ve) cells; test: LPS-stimulation of THP-1 cells (TNF-α release); assay type: cell-based, human; conditions: IC50 range, TNF-α after LPS 1 μg/ml, 6 hours, read-out: THP-1 Assay
Method: THP-1 cells are plated in […] at a density of 4×10^4 cells/well in V-bottomed 96 well tissue culture treated plates and incubated at 37° C. in 5% CO2 for 16 hours. 2 Hours after the addition of the inhibitor in 100 μl of tissue culture media, the cells are stimulated with LPS (E. Coli strain 005:B5, Sigma) at a final concentration of 1 μg/ml and incubated at 37° C. in 5% CO2 for 6 hours. TNF-α levels are measured from cell-free supernatants by sandwich ELISA (R&D Systems #QTA00B).

[3] = test system: TNF-α levels in LPS-stimulated human whole blood; test: LPS-stimulation of human whole blood (TNF-α levels); assay type: cell-based; conditions: IC50 range, TNF-α after LPS 100 ng/ml, 6 hours
Method: Whole blood is taken by venous puncture using heparinised vacutainers (Becton Dickinson) and diluted in an equal volume of RPMI1640 tissue culture media (Sigma). 100 μl is then plated in V-bottomed 96 well tissue culture treated plates. 2 Hours after the addition of the inhibitor in 100 μl of RPMI1640 media, the blood is stimulated with LPS (E. Coli strain 005:B5, Sigma) at a final concentration of 100 ng/ml and incubated at 37° C. in 5% CO2 for 6 hours. TNF-α levels are measured from cell-free supernatants by sandwich ELISA (R&D Systems #QTA00B).

Compound | IC50 [1] [µM] | IC50 ([2]; Homo sapiens, THP-1) [µM] | IC50 ([3]; Homo sapiens) [µM] | IC50 [2] [µM] | IC50 [3] [µM]
CC(C)C[C@H](NC[C@@H]1CCCN1C(=O)c1cc(C(C)C)c(O)cc1O)C(=O)OC1CCCC1 [Example 75, cyclopentyl N-{[(2S)-1-{[2,4-dihydroxy-5-(propan-2-yl)phenyl]carbonyl}pyrrolidin-2-yl]methyl}-L-leucinate] | > 1 | > 1 | > 1 |  | 
CC(C)C[C@@H](NCC1CCN(C(=O)c2cc(C(C)C)c(O)cc2O)CC1)C(=O)OC1CCCC1 [Example 28, cyclopentyl N-[(1-{[2,4-dihydroxy-5-(propan-2-yl)phenyl]carbonyl}piperidin-4-yl)methyl]-D-leucinate] | < 0.1 | 0.1 to 1 | 0.1 to 1 |  | 
CC(C)c1cc(C(=O)N2CCC(CN[C@H](C(=O)OC3CCCC3)c3ccccc3)CC2)c(O)cc1O [Example 36, cyclopentyl (2S)-{[(1-{[2,4-dihydroxy-5-(propan-2-yl)phenyl]carbonyl}piperidin-4-yl)methyl]amino}(phenyl)ethanoate] | < 0.1 | 0.1 to 1 | 0.1 to 1 |  | 
cyclopentyl N-[(1-{[2,4-dihydroxy-5-(propan-2-yl)phenyl]carbonyl}piperidin-4-yl)methyl]-L-serinate [Example 33] | < 0.1 |  |  | 0.1 to 1 | 0.1 to 1
CC(C)C[C@H](NC[C@H]1CCCN1C(=O)c1cc(C(C)C)c(O)cc1O)C(=O)OC1CCCC1 [Example 74, cyclopentyl N-{[(2R)-1-{[2,4-dihydroxy-5-(propan-2-yl)phenyl]carbonyl}pyrrolidin-2-yl]methyl}-L-leucinate] | 0.1 to 1 | > 1 | > 1 |  | 
CC(C)c1cc(C(=O)N2CCC(N[C@H](C(=O)OC3CCCC3)C3CCCCC3)CC2)c(O)cc1O [Example 14, cyclopentyl (2S)-cyclohexyl[(1-{[2,4-dihydroxy-5-(propan-2-yl)phenyl]carbonyl}piperidin-4-yl)amino]ethanoate] | 0.1 to 1 | > 1 |  |  | 
CC(C)c1cc(C(=O)N2CCC(N[C@@H](COC(C)(C)C)C(=O)OC(C)(C)C)CC2)c(O)cc1O [Example 11, tert-butyl O-tert-butyl-N-(1-{[2,4-dihydroxy-5-(propan-2-yl)phenyl]carbonyl}piperidin-4-yl)-L-serinate] | < 0.1 | > 1 |  |  | 
CC(C)C[C@@H](NC1CCN(C(=O)c2cc(C(C)C)c(O)cc2O)CC1)C(=O)OC(C)(C)C [Example 19, tert-butyl N-(1-{[2,4-dihydroxy-5-(propan-2-yl)phenyl]carbonyl}piperidin-4-yl)-D-leucinate] | < 0.1 | > 1 |  |  | 
CC(C)c1cc(C(=O)N2CCC(CN[C@@H](CO)C(=O)OC(C)(C)C)CC2)c(O)cc1O [Example 37, tert-butyl N-[(1-{[2,4-dihydroxy-5-(propan-2-yl)phenyl]carbonyl}piperidin-4-yl)methyl]-L-serinate] | < 0.1 | 0.1 to 1 |  |  | 
CC(C)C[C@H](NC1CCCN(C(=O)c2cc(C(C)C)c(O)cc2O)C1)C(=O)OC1CCCC1 (stereo partly drawn) [Example 7, cyclopentyl N-(1-{[2,4-dihydroxy-5-(propan-2-yl)phenyl]carbonyl}piperidin-3-yl)-L-leucinate] | 0.1 to 1 | > 1 |  |  | 
CC(C)c1cc(C(=O)N2CCC(N[C@@H](CO)C(=O)OC3CCCC3)CC2)c(O)cc1O [Example 18, cyclopentyl N-(1-{[2,4-dihydroxy-5-(propan-2-yl)phenyl]carbonyl}piperidin-4-yl)-L-serinate] | < 0.1 | 0.1 to 1 |  |  | 
CC(C)c1cc(C(=O)N2CCC(CCN[C@@H](CO)C(=O)OC3CCCC3)CC2)c(O)cc1O [Example 47, cyclopentyl N-[2-(1-{[2,4-dihydroxy-5-(propan-2-yl)phenyl]carbonyl}piperidin-4-yl)ethyl]-L-serinate] | < 0.1 | 0.1 to 1 |  |  | 
CC(C)c1cc(C(=O)N2CCC(CN[C@@H](Cc3ccccc3)C(=O)OC(C)(C)C)CC2)c(O)cc1O [Example 25, tert-butyl N-[(1-{[2,4-dihydroxy-5-(propan-2-yl)phenyl]carbonyl}piperidin-4-yl)methyl]-L-phenylalaninate] | < 0.1 | > 1 |  |  | 

The next lines start with results.

IC50 [1] [µM] | IC50 ([2]; Homo sapiens, THP-1) [µM] | IC50 ([3]; Homo sapiens) [µM] | Compound | IC50 [2] [µM] | IC50 [3] [µM]
< 0.1 | 0.1 to 1 | 0.1 to 1 | CC(C)c1cc(C(=O)N(C)Cc2ccc(CCNC(C)(C)C(=O)OC3CCCC3)cc2)c(O)cc1O [Example 73, cyclopentyl N-[2-(4-{[{[2,4-dihydroxy-5-(propan-2-yl)phenyl]carbonyl}(methyl)amino]methyl}phenyl)ethyl]-2-methylalaninate] |  | 
< 0.1 | < 0.1 | < 0.1 | CC(C)c1cc(C(=O)N2CCC(CN[C@@H](C)C(=O)OC3CCCC3)CC2)c(O)cc1O [Example 22, cyclopentyl N-[(1-{[2,4-dihydroxy-5-(propan-2-yl)phenyl]carbonyl}piperidin-4-yl)methyl]-L-alaninate] |  | 
< 0.1 | < 0.1 | 0.1 to 1 | CC(C)c1cc(C(=O)N2Cc3ccc(CNC4(C(=O)OC5CCCC5)CCCC4)cc3C2)c(O)cc1O [Example 60, cyclopentyl 1-{[(2-{[2,4-dihydroxy-5-(propan-2-yl)phenyl]carbonyl}-2,3-dihydro-1H-isoindol-5-yl)methyl]amino}cyclopentanecarboxylate] |  | 
< 0.1 | < 0.1 | 0.1 to 1 | CC(C)c1cc(C(=O)N2CCC(CCNC(C)(C)C(=O)OC3CCCC3)CC2)c(O)cc1O [Example 44, cyclopentyl N-[2-(1-{[2,4-dihydroxy-5-(propan-2-yl)phenyl]carbonyl}piperidin-4-yl)ethyl]-2-methylalaninate] |  | 
< 0.1 | 0.1 to 1 | 0.1 to 1 | CC(C)c1cc(C(=O)N2Cc3ccc(CNC(C)(C)C(=O)OC4CCCC4)cc3C2)c(O)cc1O [Example 55, cyclopentyl N-[(2-{[2,4-dihydroxy-5-(propan-2-yl)phenyl]carbonyl}-2,3-dihydro-1H-isoindol-5-yl)methyl]-2-methylalaninate] |  | 
< 0.1 | 0.1 to 1 | 0.1 to 1 | CC(C)c1cc(C(=O)N2Cc3ccc(CCCNC4(C(=O)OC5CCCC5)CCCC4)cc3C2)c(O)cc1O [Example 65, cyclopentyl 1-{[3-(2-{[2,4-dihydroxy-5-(propan-2-yl)phenyl]carbonyl}-2,3-dihydro-1H-isoindol-5-yl)propyl]amino}cyclopentanecarboxylate] |  | 
< 0.1 | > 1 | > 1 | CC(C)C[C@H](NC1CCN(C(=O)c2cc(C(C)C)c(O)cc2O)C1)C(=O)OC1CCCC1 (stereo partly drawn) [Example 20, cyclopentyl N-(1-{[2,4-dihydroxy-5-(propan-2-yl)phenyl]carbonyl}pyrrolidin-3-yl)-L-leucinate] |  | 
0.1 to 1 | > 1 | > 1 | CC(C)c1cc(C(=O)N2Cc3ccc(CN[C@@H](C)C(=O)OC(C)(C)C)cc3C2)c(O)cc1O [Example 56, tert-butyl N-[(2-{[2,4-dihydroxy-5-(propan-2-yl)phenyl]carbonyl}-2,3-dihydro-1H-isoindol-5-yl)methyl]-L-alaninate] |  | 
< 0.1 | 0.1 to 1 | > 1 | CC(C)C[C@H](NCCc1ccc2c(c1)CN(C(=O)c1cc(C(C)C)c(O)cc1O)C2)C(=O)OC(C)(C)C [Example 62, tert-butyl N-[2-(2-{[2,4-dihydroxy-5-(propan-2-yl)phenyl]carbonyl}-2,3-dihydro-1H-isoindol-5-yl)ethyl]-L-leucinate] |  | 
< 0.1 | 0.1 to 1 | > 1 | CC(C)C[C@H](NCc1cccc(CN(C)C(=O)c2cc(C(C)C)c(O)cc2O)c1)C(=O)OC1CCCC1 [Example 66, cyclopentyl N-(3-{[{[2,4-dihydroxy-5-(propan-2-yl)phenyl]carbonyl}(methyl)amino]methyl}benzyl)-L-leucinate] |  | 
< 0.1 | 0.1 to 1 | > 1 | CC(C)c1cc(C(=O)N(C)Cc2cccc(CNC3(C(=O)OC4CCCC4)CCCC3)c2)c(O)cc1O [Example 68, cyclopentyl 1-[(3-{[{[2,4-dihydroxy-5-(propan-2-yl)phenyl]carbonyl}(methyl)amino]methyl}benzyl)amino]cyclopentanecarboxylate] |  | 
< 0.1 | < 0.1 |  | CC(C)c1cc(C(=O)N2CCC(CCN[C@@H](C)C(=O)OC3CCCC3)CC2)c(O)cc1O [Example 39, cyclopentyl N-[2-(1-{[2,4-dihydroxy-5-(propan-2-yl)phenyl]carbonyl}piperidin-4-yl)ethyl]-L-alaninate] |  | 
